Earlier results in patent publication US8404891B2, “Storage-stable formulation of paracetamol in aqueous solution” (Neogen N.V., priority 2009, dated 2013).

Conditions: aqueous solution; K. T. Koshy et al., 1961

pH at which rate of degradation is minimal: ~6
SMILES: CC(=O)Nc1ccc(O)cc1 [paracetamol, N-(4-hydroxy-phenyl)acetamide]
